Test results reported in ChEMBL document CHEMBL6153027, “Recent report on indoles as a privileged anti-viral scaffold in drug discovery” (Eur J Med Chem, 2025).
Converted amounts (≈) assume the structure as drawn.

Columns and labels:
Sindbis virus = test: Antiviral activity against Sindbis virus infected in African green monkey Vero cells assessed as reduction in virus induced cytopathic effect; assay type: functional, organism-based
C8166 = test: Cytotoxicity against human C8166 cells assessed as reduction in cell viability incubated for 3 days by MTT assay; assay type: functional; settings: C8166, 72 h, time 3 day
[1] = system: Human immunodeficiency virus 1; test: Antiviral activity against HIV-1 IIIB infected in human C8166 cells assessed as reduction in viral replication; assay type: functional, organism-based; settings: Human immunodeficiency virus 1, IIIB
[2] = system: Human immunodeficiency virus 1; test: Antiviral activity against wild type HIV-1 NL4-3 infected in human MT4 cells assessed as reduction in viral replication; assay type: functional, organism-based; settings: Human immunodeficiency virus 1, NL4-3, MT4
[3] = Inhibition of Influenza A virus H5N1 neuraminidase
SARS-CoV-2 [4] = assay type: functional, organism-based; settings: Severe acute respiratory syndrome coronavirus 2, Wuhan-Hu-1, Vero C1008
[5] = system: Respiratory syncytial virus; test: Antiviral activity against RSV-A2 infected in human HEp-2 cells incubated for 4 days by Cell Titer Glo assay; assay type: functional, organism-based; settings: A2, HEp-2, 96 h
Tobacco mosaic virus = test: Antiviral activity against Tobacco mosaic virus; assay type: functional, organism-based
[6] = target: T1, Human immunodeficiency virus type 1 integrase (Human immunodeficiency virus 1, UniProt Q7ZJM1); test: Inhibition of recombinant HIV-1 integrase by strand transfer activity
T1 sequence (Q7ZJM1 whole entry): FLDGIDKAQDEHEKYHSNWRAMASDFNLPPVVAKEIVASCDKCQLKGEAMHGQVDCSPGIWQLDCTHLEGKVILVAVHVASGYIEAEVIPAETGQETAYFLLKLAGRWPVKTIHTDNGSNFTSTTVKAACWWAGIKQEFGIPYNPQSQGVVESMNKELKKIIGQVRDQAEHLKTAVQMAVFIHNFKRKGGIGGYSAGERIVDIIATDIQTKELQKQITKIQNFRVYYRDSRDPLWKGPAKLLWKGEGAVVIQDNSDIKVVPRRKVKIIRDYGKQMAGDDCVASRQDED

SARS-CoV-2 [7] = assay type: functional, organism-based, Vero E6; settings: Severe acute respiratory syndrome coronavirus 2, Vero C1008, 48 h
[8] = Inhibition of N-terminal SARS-CoV-2 Main protease using ESATLQSGLRKAK-QXL-NH2 as substrate incubated for 60 mins by FRET assay; parameters: species or system Severe acute respiratory syndrome coronavirus 2
Zika virus = test: Antiviral activity against Zika virus infected in African green monkey Vero cells assessed as reduction in virus induced cell death; assay type: functional, organism-based
[9] = Inhibition of Zika virus NS5 RNA dependent RNA polymerase
[10] = Cytotoxicity against African green monkey Vero cells assessed as reduction in cell viability measured after 72 hrs by MTT assay; assay type: toxicity, cell-based; settings: chlorocebus sabaeus
SARS-CoV-2 [11] = assay type: functional, organism-based; settings: Severe acute respiratory syndrome coronavirus 2, Wuhan-Hu-1, Vero C1008; remark: listed apart in the source
Human respirovirus 1 = test: Antiviral activity against Human parainfluenza virus 1 infected in Vero cells assessed as reduction in viral replication at 10 ug/ml relative to control; assay type: functional; parameters: scale not given: the % may be the effect or the level left; settings: dose 10 µg/ml
[12] = system: Respiratory syncytial virus; test: Antiviral activity against RSV-A infected in human A549 cells at 0.01 MOI assessed as inhibition of virus induced cytopathic effect […] by MTT assay; assay type: functional, organism-based
[13] = system: Venezuelan equine encephalitis virus; test: Antiviral activity against VEEV TC-83 infected in human U-87 MG cells assessed as reduction in viral replication; assay type: functional, organism-based; settings: TC-83, U-87 MG
SARS-CoV-2 [14] = assay type: functional, organism-based, Vero E6; settings: Severe acute respiratory syndrome coronavirus 2, Vero C1008, 48 h; remark: listed apart in the source
Potato virus Y = test: Antiviral activity against Potato Virus Y; assay type: functional, organism-based
[15] = Cytotoxicity against African green monkey Vero E6 cells assessed as reduction in cell viability measured for 3 days by CCK-8 assay; assay type: toxicity, cell-based; settings: chlorocebus sabaeus, Vero E6 cells (Vero C1008); time 3 day
[16] = Toxicity in African green monkey Vero cells assessed as reduction in cell viability incubated for 3 days by MTT assay; assay type: cell-based; settings: chlorocebus sabaeus, time 3 day, read-out: TC50
Human alphaherpesvirus 2 = test: Antiviral activity against HSV-2 infected in African green monkey Vero cells assessed as reduction in virus-induced cytopathic effect incubated for 3 days by MTT assay; assay type: functional, organism-based; settings: Human alphaherpesvirus 2, Vero, 72 h
[17] = system: Vesicular stomatitis virus; test: Antiviral activity against Vesicular stomatitis virus; assay type: functional, organism-based
[18] = system: Respiratory syncytial virus; test: Antiviral activity against Respiratory syncytial virus; assay type: functional, organism-based; settings: human respiratory syncytial virus
SARS-CoV-2 [19] = assay type: functional, organism-based, Vero E6; settings: Severe acute respiratory syndrome coronavirus 2, Vero C1008
Influenza A virus = test: Antiviral activity against Influenza virus […] (A/California/07/2009 pdm09) infected in human Calu-3 cells assessed as viral RNA measured after 3 days by RT-PCR assay; assay type: functional, organism-based; settings: Calu-3, 72 h
[20] = Inhibition of Influenza A virus A/California/04/2009 (H1N1) domain of PA endonuclease expressed in Escherichia coli BL21 (DE3) cells
[21] = target: T1, Human immunodeficiency virus type 1 integrase; test: Inhibition of HIV-1 integrase
[22] = system: Human immunodeficiency virus 1; test: Antiviral activity against HIV-1 infected in human MT4 cells assessed as reduction in viral replication; assay type: functional, organism-based; settings: Human immunodeficiency virus 1, MT4

CN1C(=O)/C(=N\NC(=S)Nc2ccc(S(N)(=O)=O)cc2)c2cc(OC(F)(F)F)ccc21
EC50 (Sindbis virus): > 20 µM

NS(=O)(=O)c1ccc(NC(=S)N/N=C2\C(=O)Nc3ccc(OC(F)(F)F)cc32)cc1
EC50 (Sindbis virus): 2 µM

CCc1ccc(S(=O)(=O)n2cc(C(=O)CCc3nnc(-c4ccccc4)o3)c3ccc(C)cc32)cc1
CC50 (C8166): > 469 µM
EC50 [1]: 4.62 µM

COP(=O)(c1cc(C)cc(OCC#N)c1)c1c(C(N)=O)[nH]c2ccc(Cl)cc12 (configuration not stated)
EC50 [2]: 0.08 nM

O=C1C[C@@H]2OCC=C3CN4CC[C@]56c7ccccc7N1[C@H]5[C@H]2[C@H]3C[C@H]46.O=S(=O)(O)O
IC50 [3]: 11.85 µg/mL

O=C1C(=O)N(Cc2cccc3ccccc23)c2ccc(Br)cc21
EC50 (SARS-CoV-2 [4]): 6.8 µM
EC50 [5]: 6.8 µM

CCOC(=O)c1c(C)n(C)c2ccc(OCCCOc3ccc(C(=O)/C=C/c4ccc(C)cc4)cc3)cc12
EC50 (Tobacco mosaic virus): 107 µg/mL (≈ 210 µM)

O=C(O)/C(O)=C/C(=O)c1cn(S(=O)(=O)C(=O)c2ccc(F)cc2)c2ccc(Br)cc12
IC50 [6]: 0.2 µM

CCCCCCCCCCCCCCCCCc1nnc(SCC(O)CO)n1/N=C/c1cn(Cc2ccccc2)c2ccccc12 (configuration not stated)
IC50 (SARS-CoV-2 [7]): 112 µM
IC50 [8]: 8.93 µM

O=C(NCC1CCNCC1)c1cc2ccc(-c3ccoc3)cc2[nH]1
IC50 (Zika virus): 0.37 µM

COc1ccc([C@H]2N(Nc3ccccc3)C(=O)C3Cc4ccccc4N32)cc1O[Si](C)(C)C(C)(C)C (mixture of isomers)
IC50 [9]: 10.7 µM
CC50 at 72 h [10]: > 100 µM

O=C(NCC1CCNCC1)c1c[nH]c2cc(-c3ccoc3)c(-c3ccoc3)cc12
IC50 (SARS-CoV-2 [11]): 3.8 µM

CC1CCCC2(C1)SCCN2NC(=O)c1[nH]c2ccc(S(N)(=O)=O)cc2c1-c1ccccc1 (configuration not stated)
Activity (Human respirovirus 1): 95.46%

COc1ccc([C@H]2N(Nc3ccc([N+](=O)[O-])cc3)C(=O)C3Cc4ccccc4N32)cc1O[Si](C)(C)C(C)(C)C (mixture of isomers)
IC50 [9]: 9.89 µM
CC50 at 72 h [10]: > 100 µM

Cc1cncc(C#Cc2c[nH]c3ncc(-c4ccc(C(=O)NC5CC5)cc4)cc23)c1
EC50 [12]: 0.18 µM
EC50 [13]: 1.8 µM
EC50 (SARS-CoV-2 [14]): 1.82 µM

O=C(NCCc1ccc(N2CCOCC2)cc1)c1[nH]c2ccc(Cl)cc2c1CO
IC50 (SARS-CoV-2 [7]): 4.2 µM

CC1=NCCc2c1[nH]c1ccccc21
IC50 [3]: 0.023 µg/mL (≈ 0.125 µM)

O=C(NN1C(=O)CSC12CCCCC2)c1[nH]c2ccc(Cl)cc2c1-c1ccccc1
EC50 (Sindbis virus): 1.9 µM

O=C(NCCc1ccc(N2CCCC2)cc1)c1[nH]c2ccc(Cl)cc2c1CO
IC50 (SARS-CoV-2 [11]): 3.42 µM

C#CCCn1ccc2c(C3=N[C@@H](C(C)C)CO3)cccc21
EC50 (Potato virus Y): 256 µg/mL (≈ 913 µM)

CCCCCCCCCCCCCCCCCc1nnc(SCCO)n1/N=C/c1cn(Cc2ccccc2)c2ccccc12
IC50 (SARS-CoV-2 [7]): 87.6 µM
IC50 [8]: 8.7 µM

CCOc1ccc(C2=NN(C(N)=S)C(C3CN(Cc4ccc(C(F)(F)F)cc4)c4ccccc43)C2)cc1F (configuration not stated)
EC50 (Potato virus Y): 202 µg/mL (≈ 372 µM)

O=C(Oc1cncc(Cl)c1)c1cccc2c1CCN2
CC50 at 72 h [15]: > 100 µM

CC1=NCCc2c1[nH]c1cc(O)ccc21 [HARMALOL]
IC50 [3]: 0.02 µg/mL (≈ 0.0999 µM)

CCOC(=O)c1c(CSc2ccccc2)n(C)c2cc(Br)c(O)c(CN(C)C)c12 [UMIFENOVIR]
CC50 at 72 h [16]: 32.3 µg/mL (≈ 67.7 µM)
IC50 (Human alphaherpesvirus 2): 4.77 µg/mL (≈ 9.99 µM)

Cc1ccc2c(c1)C(=O)C(=O)N2Cc1ccc2ccccc2c1
EC50 [17]: 6.8 µM
EC50 [18]: 6.8 µM

CCc1ccc(S(=O)(=O)n2cc(C(=O)CN3CCOCC3)c3ccc(C)cc32)cc1
EC50 [1]: 9.42 µM

CN1C(=O)/C(=N\NC(=S)Nc2ccc(S(N)(=O)=O)cc2)c2cc(F)ccc21
EC50 (Sindbis virus): > 4 µM

O=C1C(=O)N(Cc2ccc3ccccc3c2)c2ccccc21
IC50 (Zika virus): 0.32 µM

CS(=O)(=O)Oc1ccc(C(=O)/C=C2/C(=O)Nc3ccccc32)cc1
IC50 (SARS-CoV-2 [19]): 3.8 µM

O=C1C2Cc3ccccc3N2[C@@H](c2ccc(O)c(O)c2)N1Nc1ccc([N+](=O)[O-])cc1 (some centres not stated)
IC50 [9]: 8.52 µM
CC50 at 72 h [10]: > 100 µM

COc1cccc2[nH]c(C(=O)N[C@@H](CC(C)C)C(=O)N[C@@H](C[C@@H]3CCNC3=O)C(=O)c3nc4ccccc4s3)cc12
CC50 at 72 h [15]: > 100 µM

CCS(=O)(=O)N(c1ccc(C(=O)/C=C2/C(=O)Nc3ccccc32)cc1)S(=O)(=O)CC
IC50 (SARS-CoV-2 [19]): 3.42 µM

CN1C(=O)/C(=N\NC(=S)Nc2ccc(S(N)(=O)=O)cc2)c2cc(Br)ccc21
EC50 (Sindbis virus): > 2 µM

O=C1c2c(ccc(O)c2O)CN1Cc1ccc(O)cc1
EC50 (Influenza A virus): ~4 µM
IC50 [20]: 0.0075 µM
IC50 [21]: 0.0075 µM
EC50 [22]: ~4 µM

Cc1ccc(S(=O)(=O)n2cc(C(=O)/C=C3\OC(C)(C)OC3=O)c3cc(Br)ccc32)cc1
IC50 [6]: 5.7 µM

COc1ccc2c3c([nH]c2c1)C(C)=NCC3 [HARMALINE]
IC50 [3]: 3.42 µg/mL (≈ 16 µM)

NS(=O)(=O)c1ccc(NC(=S)N/N=C2\C(=O)Nc3ccc(Br)cc32)cc1
EC50 (Sindbis virus): 3 µM
